Series [1] has as its system kaolin-induced edema of the hind paw of the rat. The series can be described thus: Antiphlogistic activity: antiexsudative effect on kaolin-induced edema of the hind paw of the rat, oral. The format is in vivo. Conditions: p.o., dose leading to 35% reduction of swelling, graphically determined. The protocol: (§1) The antiphlogistic activity was tested to determine the antiexsudative effect on the kaolin-induced edema (see Hillebrecht in Arzneimittelforschung 4, 607 - 614 (1954) and the carrageenin-induced edema (see Winter in Proc. Soc. Exper. Biol. Med. 111, 544 (1962)) of the hind paw of the rat after oral administration of at least 3 doses to at least 10 animals per dose. The dose leading to a 35% reduction of the swelling (ED35) was graphically determined.

The subject of series [2] is carrageenin-induced edema of the hind paw of the rat. The series can be described thus: Antiphlogistic activity: antiexsudative effect on carrageenin-induced edema of the hind paw of the rat, oral. The class given is in vivo. Conditions: p.o., dose leading to 35% reduction of swelling, graphically determined. As for the experimental part:
as §1
(In general: In the carrageenan paw model, swelling and tenderness develop within hours.)

Another series can be described thus: in vivo. To be noted: rat, po. As for the experimental part:
The ulcerogenic activity in the rat was determined after oral administration of the compound for 3 times after 24 hours each time. The animals were killed 4 hours after that, and the number of the animals having an ulcer was recorded.

Series [3] can be described thus: Peroral acute toxicity in rats. To be noted: in vivo, po; rat; 50% died within 14 days; Litchfield and Wilcoxon. As for the experimental part: The peroral acute toxicity of the compounds was determined on groups of 10 rats each.

The values that follow come from US3969523A, “Antiphlogistic pharmaceutical compositions containing a 1-(nicotinoyl or isonicotinoyl)-3-biphenylyl-alkanone-(2)” (Boehringer Ingelheim GmbH, priority 1973, dated 1976).

As for `CC(C(=O)COC(=O)c1ccncc1)c1ccc(-c2ccccc2F)cc1` (stereo not shown) [A, 1-isonicotinoyloxy-3-(2'-fluoro-4"-biphenylyl)-butanone-(2)], the ED35 was 14 mg/kg in series [1] and 22.5 mg/kg in series [2]. Also, the TD50 in “in vivo” amounted to 71 mg/kg. Moreover, the LD50 (as a rule, the dose expected to kill half of the subjects tested) at 336 h in series [3] amounted to 1170 mg/kg.
